Consider 1 substance from paper PMC10319809, “Chronic UCN2 treatment desensitizes CRHR2 and improves insulin sensitivity” (Nature Communications, 2023).

Several values for one entry are separate records, joined by “and”; a condition that tells them apart may be missing. Equal entries are not always repeated. Where no end group is shown, it is not given here.

Data set [1] concerns AKT1S1, IRS1, AKT phosphorylation. Nature of the data set: Ex vivo soleus muscle insulin signaling (Western blot). Further details: species or system mouse. Particulars: 100 nM UCN2 pre-treatment, n = 2. As to the method:
Soleus muscle was removed from fed animals anesthetized by an intraperitoneal injection of pentobarbital (10 mg/100 g body weight). Dissected soleus muscles were suspended at 5 mN of tension in incubation chambers (Model 610/820 M, Danish Myo-Technology, Denmark) containing Krebs-Ringer-Buffer supplemented with 0.1% BSA, 2 mM pyruvate and 8 mM Mannitol. During the entire incubation period the KRB was maintained at 30 °C and oxygenated with 95% O2 and 5% CO2. Following 10 min of pre-incubation muscles were incubated in Krebs buffer +/− 100 nM (−7.0 log[M]) UCN2. At the next time point, 30 min later, muscles were placed in baths containing Krebs buffer +/− 100 nM (−7.0 [M]) UCN2. At the next time point, 15 min later, muscles were placed in baths containing Krebs buffer +/− 100 nM (−7.0 log[M]) UCN2 + /− 60 nM Insulin (Actrapid, Novo Nordisk, Bagsvaerd, Denmark) for 15 min. For the ex vivo glucose uptake studies, 1 mM [^3H]2-deoxyglucose (Perkin-Elmer) and 7 mM [^14C]mannitol (Perkin-Elmer) was also added at this time. Muscles that were in saline in the first bath, saline in the second bath, and saline in the third bath were assigned to the SSS group. Muscles that were in saline in the first bath, saline in the second bath, and UCN2 in the third bath were assigned to the SSU group. […]
On the technique in general: A western blot detects proteins with antibodies after separation by electrophoresis.

The next data set concerns mouse soleus muscle. Nature of the data set: Ex vivo soleus muscle [3H]2-deoxyglucose uptake. As to the method:
Soleus muscle was removed from fed animals anesthetized by an intraperitoneal injection of pentobarbital (10 mg/100 g body weight). Dissected soleus muscles were suspended at 5 mN of tension in incubation chambers (Model 610/820 M, Danish Myo-Technology, Denmark) containing Krebs-Ringer-Buffer supplemented with 0.1% BSA, 2 mM pyruvate and 8 mM Mannitol. During the entire incubation period the KRB was maintained at 30 °C and oxygenated with 95% O2 and 5% CO2. Following 10 min of pre-incubation muscles were incubated in Krebs buffer +/− 100 nM (−7.0 log[M]) UCN2. At the next time point, 30 min later, muscles were placed in baths containing Krebs buffer +/− 100 nM (−7.0 [M]) UCN2. At the next time point, 15 min later, muscles were placed in baths containing Krebs buffer +/− 100 nM (−7.0 log[M]) UCN2 + /− 60 nM Insulin (Actrapid, Novo Nordisk, Bagsvaerd, Denmark) for 15 min. For the ex vivo glucose uptake studies, 1 mM [^3H]2-deoxyglucose (Perkin-Elmer) and 7 mM [^14C]mannitol (Perkin-Elmer) was also added at this time. Muscles that were in saline in the first bath, saline in the second bath, and saline in the third bath were assigned to the SSS group. Muscles that were in saline in the first bath, saline in the second bath, and UCN2 in the third bath were assigned to the SSU group. Muscles that were in UCN2 in the first bath, saline in the second bath, and UCN2 in the third bath were assigned to the USU group. Muscles that were in saline in the first bath, UCN2 in the second bath, and UCN2 in the third bath were assigned to the SUU group. Following incubation, muscles were harvested, washed in ice-cold KRB and immediately frozen in liquid nitrogen.
Glucose uptake was determined in muscle protein lysates by assessing the accumulation of [^3H]2-deoxyglucose with the use of [^14C]mannitol to correct for the extracellular space. Radioactivity was measured by liquid scintillation counting.

In a further data set the test system is male mice. As to the kind of experiment: Plasma insulin during glucose tolerance test. As to conditions: 1 mg/kg IP UCN2. The class given is in vivo, mouse. As to the method: All metabolic tests were performed using standard protocols on male littermates (aged: 10–14 weeks). For glucose tolerance tests (GTTs), animals were fasted for 8 h with ad libitum access to water. Fasting glucose measurements were taken before […] oral glucose dose. Blood glucose measurements were taken via tail nick using the AlphaTRAK 2 Glucose Monitoring System (Zoetis, Parsippany-Troy Hills, NJ) at 10, 30, 60, and 120 min after dose. Blood was collected for insulin measurement in EDTA tubes (Becton, Dickinson and Company, Franklin Lakes, NJ) and centrifuged to collect plasma (2000 g for 10 min at 4 °C), which was stored at −80 °C until analysis at 10, 30, 60, and 120 min after dose. Insulin levels were measured using an Ultrasensitive Mouse Insulin ELISA (ALPCO, Salem, NH), according to manufacturer’s instructions. For insulin tolerance tests (ITTs), animals were fasted for 8 h and blood glucose was measured before (0 min) and at 30, 60, 90, and 120 min following IP injection of 0.75 IU/kg of insulin (Humulin R, Eli Lilly, Indianapolis, IN). […]

A short description of data set [2]: Circulating (serum/plasma) UCN2 by ELISA. The format is in vivo, mouse. As to the method:
Plasma UCN2 and UCN3 measurements were made via ELISA according to manufacturer’s instructions (Kamiya Biomedical Company, Seattle, WA). Blood was collected via intracardiac stick. For ob/ob and db/db studies, blood was collected during ad lib feeding. For acute UCN2 dosing, blood was collected 20 min after dosing with UCN2 (Bachem, Bubendorf, Switzerland) dissolved in saline.

For the next data set, the system named is mice. As to the kind of experiment: Food intake studies. The format is in vivo, mouse. The method, then: For acute studies, animals were singly housed and injected IP with saline or 1 mg/kg UCN2 (source). Food intake for the next 24 h was determined by measuring food weight in ceramic bowls within the cage. For the chronic studies, animals were singly housed and injected with Vehicle, EGFP.AAV, or UCN2.AAV. Food weight was measured in ceramic bowls every 24 h for 7 days.

Regarding “IVLSLDVPIGLLQILLEQARARAAREQATTNARILARVGHC-NH2 (C-terminus assumed) [UCN2, Urocortin 2]”, in data set [1], the “AKT1S1, IRS1 and AKT phosphorylation after UCN2 pre-treatment ex vivo” value is “increased AKT1S1, IRS1, and AKT phosphorylation”. The “2DG Uptake” value with mouse soleus muscle (Fig 6C, UCN2 without insulin, individual muscles) is 0.55 µmol/g/h and 1.85 µmol/g/h and 0.61 µmol/g/h and 0.24 µmol/g/h and 0.63 µmol/g/h. The “insulin-mediated glucose uptake, acute treatment ex vivo” value in the data set with mouse soleus muscle (soleus muscle, 100 nM UCN2, 60 nM insulin) was “sufficient to blunt insulin-mediated glucose uptake”. Besides, the “insulin-mediated glucose uptake after UCN2 pre-treatment ex vivo” value in the data set on mouse soleus muscle (soleus muscle, 100 nM UCN2 pre-treatment (SUU, USU) versus acute (SSU)) is “increased insulin-mediated glucose uptake relative to acute UCN2 treatment”. Further, in the data set with male mice, the “plasma insulin levels during the oGTT versus vehicle” value was “No significant difference”. For the same substance, the “Serum [UCN2]” value in data set [2] (WT mice, 20 min after 1 mg/kg UCN2 IP, individual animals (Fig. 2A)) is -7.638 log[M] and -7.693 log[M] and -7.457 log[M] and -7.301 log[M] and -7.207 log[M] and -7.27 log[M] and -7.25 log[M] and -7.2975 log[M]. Besides, the “circulating concentration of UCN2, average” value in data set [2] (mice, single IP 1 mg/kg, 20 min after injection, n = 8) is −7.4 log[M]. Further, the level at time molar at 20 min in data set [2] (mouse, plasma, mice, single IP 1 mg/kg, 20 min after injection, n = 8, read-out: circulating concentration of UCN2, average) stood at 40 nM. For the same substance, the “Food Intake” value with mice (single IP dose 1 mg/kg UCN2, next 24 h, individual animals (Fig. 2K), 1 mg/kg) was 0.27 g and 0.3 g and 0.24 g and 0.15 g and 0.38 g and 0.46 g and 0.59 g. The “food intake following UCN2 dosing” value with mice (single dose 1 mg/kg IP) was “decrease in food intake”.
